What was measured:
human survivin promoter [1] = assay: in vivo luciferase imaging of SPlucTg mice during liver injury and regeneration after CCl4; set-up: species or system mouse
Procedure: FIG. 20 is a photographic representation (obtained using the XENOGEN IVIS® in vivo Imaging System) of dose-dependent transient turn-on of survivin promoter activity during SPlucTg mouse liver injury and regeneration using carbon tetrachloride (CCl4): A 10% of CCl4 solution formulated in corn oil was prepared. The following dose was injected intraperitoneally on Day 0: 50 μl/25 g (panel A), 100 μl/25 g (panel B), 200 μl/25 g (panel C) and 300 μl/25 g (panel D). The in vivo imaging was monitored on Day 1 (24 h), Day 2 (48 h), Day 3 (72 h), Day 4 (96 h) and Day 6 (144 h) after administration of CCl4 (arrows indicate luciferase expression). […]
(§1) Using a survivin-specific monoclonal antibody termed 12C4, we have recently shown that testis is the only human organ that highly expresses survivin (60-70% of spermatogonia) (19). Consistent with this observation, luciferase activity in SPlucTg mice was detected only in the testis of male mice but not in female mice (founder, F1 and F2). […]
Based on this observation, we tested whether we could observe luciferase activity during mouse liver regeneration after injury. […] Importantly, the mouse liver injury and luciferase activity monitored by in vivo imaging is CCl4 dose-dependent, which provides a novel basis for testing compound-induced tissue injury/toxicity.

cancer cells = assay: cell death of treated cancer cells; type: cell-based
survivin [2] = assay: survivin expression and survivin promoter activity in cancer cells (earlier work); type: cell-based, human; details: binds to the survivin promoter
human survivin promoter [3] = assay: luciferase activity assay in cancer cell clones stably transfected with pNeoHScyc4.08-luc; type: cell-based
Procedure: Methods for transfection, G418 selection, single clone isolation and amplification: Cells were first tested for G418 resistance with a series of G418 concentrations. For transfection, cells were seeded in a 6-well cell culture plate, one day before transfection, to a cell concentration in which cell would grow into 40-70% confluence on the second day for transfection. Cells were transfected with the Sal I-linearized pNeoHScyc4.08-luc or pNeoHS4.04-luc using LIPOFECTAMINE™ 2000 (INVITROGEN). Briefly, 1-2 μg (dependent on cell transfection efficiency) of the linearized plasmid DNA in 100 μl serum-free DMEM were mixed with 1.5-3 μl Lipofectamine™ 2000 in 100 μl serum-free DMEM in a 1.5-ml tube for each well of 6-well plates. After incubation at room temperature for 20-25 minutes, the DNA/Lipofectamine™ 2000 mixture was added to each well containing 500 μl serum-free DMEM medium in the 6-well plate. […]
Methods for measuring luciferase activity and isolation of the correct cell clones: For luciferase assays, the Luciferase Reporter Assay System (PROMEGA) was used. […] Luciferase activity for each cell clones was determined every 4-5 sub-culture/passing. […]
Therefore, we used Hedamycin as a positive control to test our genetically modified cancer cell models. […] After cells were treated with 10 nM hedamycin for 16-24 hours, cells were lysed and luciferase activity was measured as described above. […]

survivin [4] = details: cancer cells; reference 15; cited from earlier work
human survivin promoter [5] = assay: in vivo luciferase imaging of castrated SPlucTg male mice after androgen treatment; set-up: species or system mouse; details: testosterone pills imbedded 14 days after castration, seen on Day 11 and Day 14 post pill
From the text: FIG. 19 is a photographic representation (obtained using the XENOGEN IVIS® in vivo Imaging System) of transient turn-on of survivin promoter activity by imbedding testosterone pills in castrated SPlucTg mice: Testosterone pills were imbedded in the back of the neck of SPlucTg mice (an example shown here is the F1 5556m derived from 5196m founder) 14 days after castration (prostate tissue shrinking to the minimal size by apoptosis in the 14 days). After testosterone pill implantation, luciferase activity was monitored using in vivo imaging.
Generation of SPlucTg mice: The targeting construct, pHScyc4.08-luc, was digested with Sal I and Sac I to isolate the 8.5 kb transgene cassette (HScyc4.08-luc) from the bacterial plasmid backbone (see FIG. 2). […] Cesium chloride-purified HScyc4.08-luc DNA was microinjected into the pronuclei of day-0.5 embryos of C57BL/6 mice. Injected embryos were implanted into the oviducts of pseudo-pregnant female Swiss Webster mice. […]
as §1

ClC(Cl)(Cl)Cl [CCl4, carbon tetrachloride]
dose dependence of mouse liver injury and luciferase activity (human survivin promoter [1]; intraperitoneal CCl4, 50, 100, 200, 300 μl/25 g): dose-dependent
luciferase activity during liver regeneration by in vivo imaging (human survivin promoter [1]; intraperitoneal injection of 10% CCl4 in corn oil, 50-300 μl/25 g, Day 1-6): strong luciferase activity

CCOc1ccc(-c2nc3ccc(-c4nc5ccc(N6CCN(C)CC6)cc5[nH]4)cc3[nH]2)cc1 [Hoechst33342]
cell death (cancer cells; 500 nM for 16-24 hours): does not result in significant cell death
survivin promoter activity and endogenous survivin gene expression (survivin [2]): upregulates the survivin promoter activity and endogenous survivin gene expression
survivin promoter/luciferase activity (human survivin promoter [3]; 500 nM Hoechst33342 for 16-24 hours, A549, 2008, HCT116, PC-3 clones with pNeoHScyc4.08-luc (FIGS. 9-12)): upregulates survivin promoter/luciferase activity

Cc1cc2c(c3oc(C4(C)OC4C4OC4C)cc(=O)c13)C(=O)c1c(O)c(C3CC(C)(N(C)C)C(O)C(C)O3)cc(C3CC(N(C)C)C(O)C(C)O3)c1C2=O (stereo not shown) [hedamycin]
cell death (cancer cells; 10 nM for 16-24 hours): do not show significant cell death
luciferase activity (human survivin promoter [3]; 10 nM hedamycin for 16-24 hours, A549, 2008, HCT116, PC-3 clones with pNeoHScyc4.08-luc (FIGS. 5-8)): significantly inhibited
survivin expression and survivin promoter activity (survivin [4]): inhibits survivin expression and downregulates survivin promoter activity

C[C@]12CC[C@H]3[C@@H](CCC4=CC(=O)CC[C@@]43C)[C@@H]1CC[C@@H]2O [testosterone]
luciferase activity (survivin promoter activity) by in vivo imaging (human survivin promoter [5]): Transient induction of survivin promoter activity
luciferase activity (survivin promoter activity) by in vivo imaging (human survivin promoter [5]; listed as androgen): transient luciferase activity

Reference: US7569221B2, “Compositions and methods for identifying agents that alter expression of survivin” (Health Research, Inc., priority 2006, dated 2009)
